In article PMC9186351, “Discovery of N-quinazolinone-4-hydroxy-2-quinolone-3-carboxamides as DNA gyrase B-targeted antibacterial agents” (Journal of Enzyme Inhibition and Medicinal Chemistry, 2022):
In brackets after ≈: the same amount, converted by molar mass. Read-outs that look alike come from different tables or passages of the source.

Columns and labels:
S. aureus GyrB = biological target: T1, S. aureus GyrB (Staphylococcus aureus, UniProt P0A0K8); experiment: S. aureus GyrB (Gyrase ATPase) inhibition assay, ADP-Glo; format: biochemical
T1 construct: purchased Inspiralis Ltd., Norwich, UK
Procedure: The IC50 values for S. aureus GyrB were determined according to our previously reported protocol.[16] For this assay, the reaction mixture (10 μL) consisted of 5 nM S. aureus Gyrase (Inspiralis Ltd., Norwich, UK), assay buffer [40 mM HEPES-KOH (pH 7.6), 10 mM magnesium acetate, 10 mM dithiothreitol, 50 g/L BSA, and 500 mM potassium glutamate], the test compound (0.01–100 μM), 1% DMSO, 10 nM linear pBR322 DNA, and […]. The target compound was dissolved in DMSO (10 mM). A series of dilutions (0.1–1000 μM) were prepared from the stock solution with the assay buffer and DMSO. The dilutions (1 μL) were respectively added to the PCR tubes along with the buffer (7 μL), the linear pBR322 DNA (0.5 μL), S. aureus Gyrase (0.5 μL), and ATP (1 μL). The PCR tubes were sealed and incubated at 37 °C for 30 min. The ADP-Glo reagent (40 μL) was added to stop the reaction and use up the remaining ATP.
The detection reagent (50 μL) was then added and mixed. After 5 min, the mixture in each PCR tube was put in the well of a 96-well plate and its luminescence was measured by the BioTek Synergy 2 microplate reader. The activity values (%) of S. aureus Gyrase treated by the test compound at different concentrations were determined based on the luminescence. GraphPad Prism version 5 software (GraphPad Software Inc., La Jolla, CA) was used to calculate the IC50 values.

[1] = test system: methicillin-sensitive S. aureus (MSSA); experiment: MIC by broth microdilution, MSSA isolates; format: cell-based; settings: Staphylococcus aureus
Procedure: (§1) All of the bacterial strains used in this study were obtained from the Collection Centre of Pathogen Microorganism of Chinese Academy of Medical Sciences (CAMS-CCPM-A) in China. All of the isolates were stored at −80 °C and streaked on tryptic soy agar (TSA) plates to obtain overnight cultures. The MICs of the test compounds were determined by the broth microdilution method in accordance with the Clinical and Laboratory Standards Institute (CLSI) guidelines.[20] Cation-adjusted Mueller-Hinton broth (CAMHB) was used as the growth medium for MIC assays. Briefly, 100 μL of serially diluted compounds (starting concentrations were 64 μg/mL) in CAMH broth were added to the wells of 96-well microtiter plates. Then, 10 µL of 5 × 10^6 CFU/mL bacterial culture was added to each well. […] The MIC was defined as the lowest concentration of a compound that inhibited visual growth of the bacteria. Vancomycin was set as the positive control for this assay.

[2] = test system: methicillin-resistant S. aureus (MRSA); experiment: MIC by broth microdilution, MRSA strains; format: cell-based; settings: Staphylococcus aureus
Procedure: as §1

MRSA/VISA strains = experiment: MIC by broth microdilution, MRSA and VISA panel; format: cell-based, S. aureus; settings: Staphylococcus aureus
Procedure: as §1

[3] = Cytotoxicity, SRB assay, HUVEC; format: cell-based, human; settings: human, HUVEC cells, 72-h treatment (footnote), read-out: In vitro cytotoxicity CC50 (μM, mean ± SD)
Procedure: (§2) Cytotoxicity in terms of CC50 was determined by the SRB assay according to the protocol described in our previous publication.[16] Briefly, human HUVECs or HepG2 cells were seeded in the wells of 96-well plates at a concentration of 1 × 10^5 cells per well and incubated at 37 °C for 24 h. […] The cells were fixed with 10% trichloroacetic acid (w/v) at 4 °C for 1 h, washed five times with distilled water, and stained with 0.4% SRB solution at room temperature for another 20 min. The cells were then washed five times with 1% acetic acid and air-dried. The protein-bound dye was dissolved in 10 mM Tris-base solution and shaken for 5 min. The optical density (OD) was measured at 540 nm using a microplate reader to estimate the cell viability (%). With the viability values (%) of the cells treated by the compound at different concentrations as input, the CC50 value was determined by the non-linear regression with normalised dose-response fit implemented in GraphPad Prism version 5 software (GraphPad Software Inc., La Jolla, CA). The experiment was performed in duplicate, and paclitaxel was used as the positive drug for this assay.

HUVECs = experiment: Cytotoxicity, SRB assay, HUVEC; format: cell-based, human; settings: 72-h treatment (footnote), read-out: In vitro cytotoxicity CC50 (μM, mean ± SD)
Procedure: as §2

in vitro = in vitro ADME, mouse; settings: mouse, plasma
Procedure: The mouse plasma was purchased from Charles River and stored at −20 °C. The stock solution of the test compound dissolved in DMSO (50 mM) was prepared and diluted to obtain a working solution at the concentration of 0.2 mM. The working solution of the control compound, i.e. propantheline, was similarly prepared (0.2 mM). Terfenadine (5 ng/mL) and tolbutamide (10 ng/mL) dissolved in acetonitrile were used as two quenching solutions.
The mouse plasma was pre-warmed at 37 °C for 15 min. The working solution of the test/control compound (2 µL) was then added to the mouse plasma (398 µL) in a 96-well plate. Next, 30 µL of the reaction mixture was sampled and moved to 300 µL of quenching solutions at each time point: 0, 5, 15, 30, 60, and 120 min for the control compound and 0, 15, 30, 60, and 120 min for the test compound. When the sampling was done, each sample was centrifuged at 4000 rpm at 4 °C for 15 min. Then, 100 µL of the supernatant was removed and mixed with 100 µL of distilled water for LC-MS/MS analysis with Shimadzu HPLC system and the AB Sciex API 4000 QTRAP instrument. The remaining compound (%) after incubation in plasma versus the incubation time was plotted. The half-life (t1/2) value of the compound was determined via linear regression from the plot.

T1 sequence (P0A0K8 whole entry): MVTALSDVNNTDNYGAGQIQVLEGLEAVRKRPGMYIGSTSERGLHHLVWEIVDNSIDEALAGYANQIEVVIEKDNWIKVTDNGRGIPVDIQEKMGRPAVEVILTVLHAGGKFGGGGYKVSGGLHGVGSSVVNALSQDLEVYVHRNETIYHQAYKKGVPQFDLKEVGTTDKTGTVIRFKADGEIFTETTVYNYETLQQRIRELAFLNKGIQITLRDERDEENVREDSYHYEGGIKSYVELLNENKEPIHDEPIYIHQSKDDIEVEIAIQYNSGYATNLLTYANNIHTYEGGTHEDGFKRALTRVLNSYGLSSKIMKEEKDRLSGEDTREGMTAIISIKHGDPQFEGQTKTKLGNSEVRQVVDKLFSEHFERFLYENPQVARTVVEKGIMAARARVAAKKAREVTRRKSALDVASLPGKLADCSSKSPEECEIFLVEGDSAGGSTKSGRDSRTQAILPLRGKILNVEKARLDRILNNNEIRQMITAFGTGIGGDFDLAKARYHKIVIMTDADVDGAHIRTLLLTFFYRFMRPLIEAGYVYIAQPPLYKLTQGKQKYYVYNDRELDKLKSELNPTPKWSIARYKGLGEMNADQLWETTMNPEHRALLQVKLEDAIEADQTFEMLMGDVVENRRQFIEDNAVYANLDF
T1 sequence (P20831 whole entry, further chain): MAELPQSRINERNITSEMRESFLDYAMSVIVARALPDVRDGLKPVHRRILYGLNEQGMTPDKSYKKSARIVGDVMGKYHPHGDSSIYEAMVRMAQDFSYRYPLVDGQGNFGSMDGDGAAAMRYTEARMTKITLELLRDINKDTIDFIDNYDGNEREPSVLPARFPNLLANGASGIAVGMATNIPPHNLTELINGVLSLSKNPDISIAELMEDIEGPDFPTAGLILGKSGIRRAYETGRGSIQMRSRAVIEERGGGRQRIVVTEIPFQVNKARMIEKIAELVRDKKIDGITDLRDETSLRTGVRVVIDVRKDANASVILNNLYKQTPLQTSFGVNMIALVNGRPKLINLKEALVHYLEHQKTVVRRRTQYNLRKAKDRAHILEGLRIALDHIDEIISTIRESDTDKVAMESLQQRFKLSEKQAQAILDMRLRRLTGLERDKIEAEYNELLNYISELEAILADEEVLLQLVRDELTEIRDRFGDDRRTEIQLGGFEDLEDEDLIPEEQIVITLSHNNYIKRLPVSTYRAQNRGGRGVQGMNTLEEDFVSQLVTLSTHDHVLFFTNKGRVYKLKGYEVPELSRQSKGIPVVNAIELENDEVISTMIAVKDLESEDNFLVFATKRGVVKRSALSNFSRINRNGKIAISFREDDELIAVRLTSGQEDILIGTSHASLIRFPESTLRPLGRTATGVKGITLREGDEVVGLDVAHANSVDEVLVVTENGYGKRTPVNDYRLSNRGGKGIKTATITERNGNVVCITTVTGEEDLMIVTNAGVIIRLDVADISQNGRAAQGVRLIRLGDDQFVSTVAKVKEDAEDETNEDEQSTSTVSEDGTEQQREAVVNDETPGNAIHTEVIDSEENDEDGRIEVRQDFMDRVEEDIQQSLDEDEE

Q: With `CCCCCc1nc2ccccc2c(=O)n1NC(=O)c1c(O)c2ccccc2n(CC)c1=O` [f1, N-(4-oxo-2-pentylquinazolin-3(4H)-yl)-1-ethyl-4-hydroxy-2-oxo-1,2-dihydroquinoline-3-carboxamide] as the compound, how does the IC50 (S. aureus GyrB; IC50 for GyrB (µM, mean ± SD), S. aureus Gyrase ATPase inhibition, average of duplicates) read?
A: 1.21 ± 0.13 µM

Q: What about the inhibition at 10 µM (S. aureus GyrB; read-out: GyrB inhibition rate (%) at 10 μM) of the same compound?
A: 72%

Q: And the MIC ([1]; ATCC 29213 / BAA-1708 / BAA-976 / MSSA, ATCC 29213, 15, 18-3, BAA976, BAA1708, span over isolates, read-out: MIC over the five MSSA isolates)?
A: 4 to 8 µg/mL (≈ 8.96 to 17.9 µM)

Q: And the MIC ([1]; ATCC 29213 / MSSA, MSSA ATCC 29213, read-out: MIC)?
A: 4 µg/mL (≈ 8.96 µM)

Q: What about the MIC ([1]; BAA-976 / MSSA, MSSA BAA976, read-out: MIC) of the same compound?
A: 4 µg/mL (≈ 8.96 µM)

Q: And the MIC ([1]; BAA-1708 / MSSA, MSSA BAA1708, read-out: MIC)?
A: 4 µg/mL (≈ 8.96 µM)

Q: What about the MIC ([1]; MSSA, MSSA 15, read-out: MIC) of the same compound?
A: 8 µg/mL (≈ 17.9 µM)

Q: And the MIC ([1]; MSSA, MSSA 18-3, read-out: MIC)?
A: 4 µg/mL (≈ 8.96 µM)

Q: And the MIC ([2]; ATCC 33591 / MRSA, MRSA ATCC 33591, read-out: MIC)?
A: 4 µg/mL (≈ 8.96 µM)

Q: And the MIC ([2]; ATCC 43300 / MRSA, MRSA ATCC 43300, read-out: MIC)?
A: 4 µg/mL (≈ 8.96 µM)

Q: And the MIC ([2]; MRSA 18-2, read-out: MIC)?
A: 8 µg/mL (≈ 17.9 µM)

Q: What about the MIC ([2]; span over MRSA strains, read-out: MICs against MRSA) of the same compound?
A: 4 to 8 µg/mL (≈ 8.96 to 17.9 µM)

Q: What about the MIC (MRSA/VISA strains; ATCC 33591 / ATCC 43300 / ATCC 700699 / MRSA / VISA, span over ATCC 33591, ATCC 43300, 18-2, ATCC 700699, HIP 5836, HIP 5827, read-out: MICs for MRSA and VISA strains) of the same compound?
A: 4 to 16 µg/mL

Q: What about the MIC (MRSA/VISA strains; span over tested MRSA/VISA strains, read-out: MICs for MRSA/VISA strains converted to) of the same compound?
A: 8.97 to 35.9 µM

Q: What about the CC50 at 72 h [3] of the same compound?
A: ~50 µM

Q: What about the CC50 (HUVECs) of the same compound?
A: 51.5 ± 4.5 µM

Q: And the half-life at 1 µM (in vitro)?
A: > 6.21 h
